Like-named read-outs stand apart in the source and are kept apart here.
Assays:
P. falciparum ABS = conditions: cited from earlier work; for EC50: ChEMBL Data, read-out: TCMDC (ref 93) EX50; for IC50: read-out: Pf 3D7 Pbox IC50
HEK293 cells = test: HEK293 resazurin cell cytotoxicity assay; conditions: Homo sapiens
HepG2 = conditions: cited from earlier work; for CC50: read-out: HepG2 PBox CC50 µM, HepG2 cytotoxicity; for CC50 / HepG2 PBox CC20: ref PBox supporting information; for HepG2 PBox CC20 μMc: ref Pbox supporting information
[1] = tested on: T. cruzi intracellular amastigotes; test: Intracellular anti-Trypanosoma cruzi image-based assay (amastigotes); type: cell-based; conditions: for IC50 / Emax: Trypanosoma cruzi; for IC50: intracellular amastigotes; for Emax: PBox kinetoplastid set compounds active against T. cruzi alone, read-out: Emax against T. cruzi (subefficacious effect)
[2] = tested on: T. b. brucei 427 bloodstream trypanosomes; test: T. b. brucei resazurin viability assay; type: cell-based, Trypanosoma brucei brucei; conditions: Trypanosoma brucei
[3] = tested on: Plasmodium falciparum 3D7 asexual blood stage; test: microbe, parasite or virus in culture
[4] = tested on: NF54-pfs16-LUC-GFP stage IV gametocytes; test: Plasmodium falciparum late stage gametocyte (LSG) image-based assay; type: cell-based; conditions: Plasmodium falciparum
[5] = tested on: T. cruzi C4 β-galactosidase reporter parasite in MRC 5SV2 host cells; conditions: ref Pbox supporting information; read-out: T. cruzi Pbox IC50; cited from earlier work
liver stage = conditions: cited from earlier work
[6] = tested on: L. donovani MHOM/IN/80/DD8 intracellular amastigotes; test: Leishmania donovani intracellular amastigote assay in THP-1 cells; type: cell-based; conditions: Leishmania donovani, THP-1; intracellular amastigotes; values marked *; read-out: L, donovani Discovery Biology IC50 µM
[7] = P. falciparum 3D7, ref PBox supporting information
[8] = HEK293, read-out: HEK % Inhibition 20uM/IC50 Discovery Biology (IA)
[9] = HEK293, read-out: HEK % Discovery Biology IC50 uM
[10] = read-out: T b.brucei Discovery Biology IC50
[11] = 3D7, read-out: Antiplasmodial IC50 (ABS), PBox compounds, P. falciparum 3D7
[12] = NF54, read-out: Antiplasmodial IC50 (GAM / LSG), PBox compounds, stage IV gametocytes, single determination
[13] = read-out: T cruzi Discovery Biology IC50
[14] = HEK293, read-out: HEK % Inhibition 20uM/IC50 Discovery Biology
[15] = 3D7, read-out: activity against P. falciparum (novel antiplasmodial actives of the tuberculosis set)
[16] = NF54, read-out: Pf Stage IV GAMS Discovery Biology IC50 µM, stage IV gametocytes, Discovery Biology
[17] = 3D7, read-out: Pf 3D7 Discovery Biology IC50 µM, P. falciparum 3D7 asexual blood stage
[18] = NF54, read-out: Pf Stage IV GAMS Discovery Biology IC50 µM, stage IV gametocytes

In the case of `CC(C)c1ncc(-c2ccncc2)c([C@H]2CC[C@H](CNC(=O)c3cccnc3)CC2)n1` [MMV676442], the EC50 (P. falciparum ABS; P. falciparum) is given as 780 nM, the IC50 (P. falciparum ABS; [7]) is given as 840 nM and the IC50 (HEK293 cells; [8]) is given as > 20 µM.

For `O=C(Nc1nc(-c2ccccn2)cs1)c1cncn1-c1ccccc1` [MMV676512], the CC50 (HepG2) is listed as 3.8 µM, the IC50 ([1]; Discovery Biology, read-out: T cruzi Discovery Biology IC50) is listed as 4120 nM and the IC50 (HEK293 cells; [9]) is listed as 2.83 µM. The IC50 [2, 10] was 2.87 µM.

With `COc1ccc(-c2onc(C(F)(F)F)c2-c2ccc(Cl)cc2)c(O)c1` [MMV688766] the IC50 [3, 11] was 0.85 µM, the IC50 (HEK293 cells; [8]) was > 20 µM and the IC50 [4, 12] was 1.31 µM.

In the case of `O=C([C@@H](c1ccc(Cl)cc1)c1cccnc1)N1CCN(c2ccc(C(F)(F)F)cc2)CC1` [MMV689244], the “HepG2 PBox CC20” value (HepG2) is given as 19000 nM, the IC50 [5] is given as 7.5 nM and the Emax [1] is given as < 100%. For the same compound, the IC50 [1, 13] was 120 nM and the IC50 (HEK293 cells; [14]) was > 20 µM.

Compound `COc1cccc(-n2nnnc2S(=O)(=O)Cc2ccccc2)c1` [MMV676388] has an IC50 [3, 11] of 4.93 µM, an IC50 [3, 15] of 4 to 5 µM and an IC50 [4, 12] of 2.99 µM.

In the case of `O=C1COCc2ccc(Br)cc2N1Cc1ccc(C(F)(F)F)cc1` [MMV032995], the IC50 (P. falciparum ABS; [7]) is given as 960 nM and the IC50 (liver stage; ref Pbox supporting information) is given as 2000 nM.

In the case of `COc1cccc(-n2nnnc2S(C)(=O)=O)c1` [MMV272144], the CC50 (HepG2) is listed as 1.7 µM, the inhibition at 20 µM (HEK293 cells; [14]) is listed as 100% and the IC50 [2, 10] is listed as 4.12 µM. It also gave an IC50 [4, 16] of 1.92 µM.

For `CS(=O)(=O)N1CCC(Cn2nc(Cc3cccc4ccccc34)c3c(N)ncnc32)CC1` [MMV676050], the “HepG2 PBox CC20” value (HepG2) is listed as 53000 nM and the inhibition at 20 µM (HEK293 cells; [14]) is listed as 77%.

For `Cc1[nH]c2cc(F)cc(F)c2c(=O)c1-c1ccc(Oc2ccc(OC(F)(F)F)cc2)cc1` [MMV671636], the IC50 ([3]; 3D7, read-out: Antiplasmodial IC50 (ABS)) is given as 1.01 µM, the “HepG2 PBox CC20 μMc” value (HepG2) is given as >80000 nM and the IC50 (HEK293 cells; [8]) is given as > 20 µM.

For `FC(F)(F)c1ccc(N(c2cccnc2)C2CCN(c3ccc(C(F)(F)F)cn3)CC2)cc1` [MMV689243], the “HepG2 PBox CC20” value (HepG2) is given as 25800 nM, the IC50 [5] is given as 15 nM and the Emax [1] is given as < 100%. The IC50 [1, 13] was 700 nM and the IC50 (HEK293 cells; [14]) was > 20 µM.

In the case of `CC(C)(C)c1cnc(NC(=O)c2ccccc2O)s1` [MMV495543], the CC50 (HepG2) is listed as 47.6 µM and the IC50 [2, 10] is listed as 5.45 µM.

In the case of `CS(=O)(=O)c1ccc(C(=O)N(CC2CCCO2)c2nc3ccccc3s2)cc1[N+](=O)[O-]` (stereo not drawn) [MMV688761], the IC50 [3, 17] is listed as 4.08 µM, the “HepG2 PBox CC20 μMc” value (HepG2) is listed as 6900 nM and the inhibition at 20 µM (HEK293 cells; [14]) is listed as 42%. It also gave an IC50 [2, 10] of 3.49 µM and an IC50 [4, 18] of 0.9 µM.

In the case of `c1cncc(NCc2ccc(-c3cc4ccncc4cc3OC3CCNCC3)s2)c1` [MMV023969], the EC50 (P. falciparum ABS; TCMDC set, P. falciparum) is listed as 980 nM, the IC50 [3, 11] is listed as 0.59 µM and the CC50 (HepG2) is listed as 8 µM. It also gave an inhibition at 20 µM (HEK293 cells; [14]) of 86%.

In the case of `CC(Oc1ccccc1)C(=O)Nc1nc(-c2ccccn2)cs1` (stereo not drawn) [MMV676411], the IC50 ([3]; 3D7, read-out: Pf 3D7 Discovery Biology IC50 µM, P. falciparum 3D7 asexual blood stage, Discovery Biology) is given as 5 µM, the CC50 (HepG2) is given as 29.3 µM and the inhibition at 20 µM (HEK293 cells; [14]) is given as 81%. The IC50 [2, 10] was 3.22 µM and the IC50 [4, 16] was 1.92 µM.

For `CC(C)n1nc(-c2cc3c(Cl)cccc3[nH]2)c2c(N)ncnc21` [MMV688417], the “activity against T. cruzi in the Discovery Biology assay” value [1] was “subefficacious activity”, the IC50 ([1]; PBox compounds, 48 h exposure, read-out: IC50 T. cruzi (Discovery Biology)) was 1430 nM and the inhibition at 20 µM (HEK293 cells; [14]) was 83%. For the same compound, the IC50 [2, 10] was 6.1 µM.

In the case of `NS(=O)(=O)c1cncc(-c2ccc3nccc(-c4cn[nH]c4)c3n2)c1` [MMV024101], the EC50 (P. falciparum ABS; TCMDC) is listed as 530 nM, the IC50 (P. falciparum ABS; Pf 3D7, ref Pathogen Box supporting information) is listed as 600 nM and the IC50 (liver stage; liver stage, ref Pathogen Box supporting information, read-out: LIVER STAGE Pbox IC50) is listed as 2170 nM.

For `Cc1cc(NCCc2ccccc2)nc(NC(=N)Nc2ccc(Cl)cc2)n1` [MMV021660], the EC50 (P. falciparum ABS; TCMDC set, P. falciparum) is listed as 230 nM, the IC50 [3, 11] is listed as 0.16 µM and the CC50 (HepG2) is listed as 6.5 µM. The inhibition at 20 µM (HEK293 cells; [14]) was 100%.

For `CNc1nnc(Sc2cnn(-c3ccccc3)c(=O)c2Cl)s1` [MMV688763], the IC50 [3, 17] is given as 3.36 µM, the “HepG2 PBox CC20 μMc” value (HepG2) is given as 1600 nM and the IC50 (HEK293 cells; [9]) is given as 6.32 µM. It also gave an IC50 [4, 18] of 5.33 µM and an IC50 [6] of 2.11 µM.

In the case of `Brc1cncc(-c2cc(NCCCn3ccnc3)nc(-c3ccccc3)n2)c1` [MMV661713], the IC50 [3, 11] is reported as 1.49 µM and the IC50 [3, 15] is reported as < 2 µM.

In the case of `Cc1ccc2[nH]c(C3CCCNC3)c(-c3ccncc3)c2c1` (stereo not drawn) [MMV024311], the EC50 (P. falciparum ABS; TCMDC set, P. falciparum) is listed as 1230 nM, the IC50 [3, 11] is listed as 0.75 µM and the CC50 (HepG2) is listed as 12.7 µM. For the same compound, the IC50 ([2]; read-out: T b.brucei Discovery Biology IC50 µM) was 5.15 µM.

From publication PMC5571359, “Screening the Medicines for Malaria Venture Pathogen Box across Multiple Pathogens Reclassifies Starting Points for Open-Source Drug Discovery” (Antimicrobial Agents and Chemotherapy, 2017)
